Measured values taken from US20240360151A1 (SANOFI, priority 2023, published 2024).

Columns and labels:
[1] = test system: NF-kB pathway (TNF-α secretion by THP-1 cells); assay: TNF-α secretion assay in LPS-stimulated THP-1 cells, Lumit immunoassay; type: cell-based, human; settings: Homo sapiens, THP-1, 3 h, monocytic THP-1 cells, LPS 10 ng/mL, relative IC50, 10 concentrations, geometric mean
Method in brief: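 TNF-α release was quantified directly in the cell plate by Lumit immunoassay after a 3-h, 10 ng/mL LPS trigger of compound-treated THP-1 cells (RPMI, 5% FBS). Percent inhibition versus no-compound and unstimulated controls fed a 4-parameter logistic fit over 10 concentrations, giving geometric-mean relative IC50.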

NLRP3 inflammasome = target: T1, NLRP3 inflammasome (Homo sapiens, UniProt Q96P20); assay: IL-1β secretion assay (NLRP3 IC50) in LPS-primed, nigericin-activated THP-1 cells, HTRF; type: cell-based; settings: monocytic THP-1 cells; LPS 10 ng/mL 3 h priming, then compound + nigericin 10 μM 2 h; relative IC50, 10 concentrations, geometric mean
T1 construct: endogenous in cells; host or cells: THP-1 monocytic cells
T1 sequence (Q96P20 whole entry): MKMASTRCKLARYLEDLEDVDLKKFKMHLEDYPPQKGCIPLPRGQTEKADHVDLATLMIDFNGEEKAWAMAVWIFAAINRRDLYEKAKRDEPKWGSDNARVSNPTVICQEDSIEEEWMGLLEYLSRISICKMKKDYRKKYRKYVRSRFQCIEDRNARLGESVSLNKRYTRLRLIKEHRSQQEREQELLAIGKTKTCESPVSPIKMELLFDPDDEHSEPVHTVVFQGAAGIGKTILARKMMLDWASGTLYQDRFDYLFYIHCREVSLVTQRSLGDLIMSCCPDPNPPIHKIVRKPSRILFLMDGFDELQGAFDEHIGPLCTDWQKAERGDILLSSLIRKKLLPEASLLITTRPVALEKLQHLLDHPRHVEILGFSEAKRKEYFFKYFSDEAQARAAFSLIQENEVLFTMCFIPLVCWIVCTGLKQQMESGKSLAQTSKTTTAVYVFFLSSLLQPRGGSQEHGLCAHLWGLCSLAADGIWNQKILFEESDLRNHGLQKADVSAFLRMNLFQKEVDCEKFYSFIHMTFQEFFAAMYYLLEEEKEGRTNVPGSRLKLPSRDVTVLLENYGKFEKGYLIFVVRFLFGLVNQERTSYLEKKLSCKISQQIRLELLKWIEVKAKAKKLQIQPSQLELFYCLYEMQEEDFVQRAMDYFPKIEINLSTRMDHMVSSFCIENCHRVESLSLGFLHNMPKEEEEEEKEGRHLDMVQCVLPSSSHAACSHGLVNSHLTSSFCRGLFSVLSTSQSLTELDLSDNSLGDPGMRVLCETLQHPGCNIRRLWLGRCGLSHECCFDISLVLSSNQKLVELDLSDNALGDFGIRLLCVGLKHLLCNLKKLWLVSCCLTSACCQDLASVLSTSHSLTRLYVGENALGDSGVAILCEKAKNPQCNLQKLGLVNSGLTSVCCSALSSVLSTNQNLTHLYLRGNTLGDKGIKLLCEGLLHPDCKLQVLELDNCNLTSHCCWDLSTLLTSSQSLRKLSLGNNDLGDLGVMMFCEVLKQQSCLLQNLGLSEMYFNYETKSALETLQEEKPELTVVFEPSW
Method in brief: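 IL-1β in supernatant read by HTRF after 2 h co-incubation of compound (0.1% DMSO, 10 concentrations, 1:3 series) with nigericin at 10 μM final, following 3 h LPS (10 ng/mL) priming of THP-1 monocytes at 37° C. Inhibition normalised to unactivated and no-compound controls; geometric-mean relative IC50 from 4-parameter logistic model.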

IC50 [1] [nM] | IC50 (NLRP3 inflammasome) [nM] | Structure (SMILES)
> 10000 | 0.48 | CCc1cccc(O)c1-c1ccc(N2CC[C@H]3CCN(C)C[C@H]32)nn1 (single isomer, unassigned) [Example 423]
> 10000 | 2 | CN1CC[C@H]2CCN(c3ccc(-c4c(O)cccc4C(F)(F)F)nn3)[C@H]2C1 (single isomer, unassigned) [Example 427]
> 10000 | < 0.36 | CCN1CC[C@H]2CCN(c3ccc(-c4c(C)cc(C(F)(F)F)cc4O)nn3)[C@H]2C1 (single isomer, unassigned) [Example 429]
> 10000 | 522 | Cc1cc(C)c(-c2ccc(N3CCC[C@]4(C3)C[C@H](O)C4)nn2)c(O)c1 (single isomer, unassigned; isomer 1) [Example 175, 6-[6-(2-hydroxy-4,6-dimethyl-phenyl)pyridazin-3-yl]-6-azaspiro[3.5]nonan-2-ol Isomer 1]
> 10000 | 250 | Cc1cc(C)c(-c2ccc(N3CCC[C@]4(C3)C[C@@H](O)C4)nn2)c(O)c1 (single isomer, unassigned; isomer 2) [Example 176, 6-[6-(2-hydroxy-4,6-dimethyl-phenyl)pyridazin-3-yl]-6-azaspiro[3.5]nonan-2-ol Isomer 2]
3010 | 174 | Cc1cc(C)c(-c2ccc(N3C[C@@H]4COC[C@H]4C3)nn2)c(O)c1 (stereo in doubt) [Example 207, 2-[6-[(3aR,6aR)-1,3,3a,4,6,6a-hexahydrofuro[3,4-c]pyrrol-5-yl]pyridazin-3-yl]-3,5-dimethyl-phenol]
> 10000 | 17 | CC(=O)N1CC[C@@H]2OCCN(c3ccc(-c4c(C)cc(C(F)(F)F)cc4O)nn3)[C@@H]2C1 (stereo in doubt) [Example 398, 1-[(4aR,8aS)-4-[6-[2-hydroxy-6-methyl-4-(trifluoromethyl)phenyl]pyridazin-3-yl]-3,4a,5,7,8,8a-hexahydro-2H-pyrido[4,3-b][1,4]oxazin-6-yl]ethanone]
> 10000 | 78 | CCN1CC[C@H]2CCN(c3ccc(-c4c(C)cc(C(F)(F)F)cc4O)nn3)[C@H]2C1 (stereo in doubt) [Example 406, 2-[6-[(3aS,7aR)-6-ethyl-3,3a,4,5,7,7a-hexahydro-2H-pyrrolo[2,3-c]pyridin-1-yl]pyridazin-3-yl]-3-methyl-5-(trifluoromethyl)phenol]
> 10000 | 407 | Cc1cc(C)c(-c2ccc(N3CCC(O)CC3)nn2)c(O)c1 [Example 1, 1-[6-(2-hydroxy-4,6-dimethyl-phenyl)pyridazin-3-yl]piperidin-4-ol]
> 10000 | 290 | Cc1cc(C)c(-c2ccc(N3CCOC[C@H]3CO)nn2)c(O)c1 [Example 5, 2-[6-[(3R)-3-(hydroxymethyl)morpholin-4-yl]pyridazin-3-yl]-3,5-dimethyl-phenol]
> 10000 | 235 | Cc1cc(C)c(-c2ccc(N3CCOC[C@@H]3CO)nn2)c(O)c1 [Example 6, 2-[6-[(3S)-3-(hydroxymethyl)morpholin-4-yl]pyridazin-3-yl]-3,5-dimethyl-phenol]
> 10000 | 20 | Cc1cc(C)c(-c2ccc(N3CCO[C@H](CO)C3)nn2)c(O)c1 [Example 8, 2-[6-[(2S)-2-(hydroxymethyl)morpholin-4-yl]pyridazin-3-yl]-3,5-dimethyl-phenol]
> 10000 | 113 | Cc1cc(C)c(-c2ccc(N3CCO[C@@H](CO)C3)nn2)c(O)c1 [Example 9, 2-[6-[(2R)-2-(hydroxymethyl)morpholin-4-yl]pyridazin-3-yl]-3,5-dimethyl-phenol]
> 10000 | 605 | COC[C@H]1CCCN1c1ccc(-c2c(C)cc(C(F)(F)F)cc2O)nn1 [Example 14, 2-[6-[(2R)-2-(methoxymethyl)pyrrolidin-1-yl]pyridazin-3-yl]-3-methyl-5-(trifluoromethyl)phenol]
> 10000 | 406 | COC[C@@H]1CCCN1c1ccc(-c2c(C)cc(C(F)(F)F)cc2O)nn1 [Example 15, 2-[6-[(2S)-2-(methoxymethyl)pyrrolidin-1-yl]pyridazin-3-yl]-3-methyl-5-(trifluoromethyl)phenol]
> 10000 | 25 | Cc1cc(C(F)(F)F)cc(O)c1-c1ccc(N2CCO[C@H](CO)C2)nn1 [Example 16, 2-[6-[(2S)-2-(hydroxymethyl)morpholin-4-yl]pyridazin-3-yl]-3-methyl-5-(trifluoromethyl)phenol]
> 10000 | 473 | NC1(C2CCCN(c3ccc(-c4c(O)cc(Cl)cc4Cl)nn3)C2)CC1 (stereo not shown) [Example 17, 2-[6-[3-(1-aminocyclopropyl)-1-piperidyl]pyridazin-3-yl]-3,5-dichloro-phenol]
> 10000 | 173 | NC[C@@H]1CCCN(c2ccc(-c3c(O)cc(Cl)cc3Cl)nn2)C1 [Example 18, 2-[6-[(3S)-3-(aminomethyl)-1-piperidyl]pyridazin-3-yl]-3,5-dichloro-phenol]

IC50 [1] [nM] | IC50 (NLRP3 inflammasome) [nM] | Structure (SMILES)
> 10000 | 44 | Cc1cc(C(F)(F)F)cc(O)c1-c1ccc(N2CC[C@H](CO)C2)nn1 [Example 20, 2-[6-[(3S)-3-(hydroxymethyl)pyrrolidin-1-yl]pyridazin-3-yl]-3-methyl-5-(trifluoromethyl)phenol]
> 10000 | 20 | OC[C@@H]1CN(c2ccc(-c3c(O)cc(Cl)cc3Cl)nn2)CCO1 [Example 21, 3,5-dichloro-2-[6-[(2S)-2-(hydroxymethyl)morpholin-4-yl]pyridazin-3-yl]phenol]
> 10000 | 153 | NC[C@H]1CCCN(c2ccc(-c3c(O)cc(Cl)cc3Cl)nn2)C1 [Example 22, 2-[6-[(3R)-3-(aminomethyl)-1-piperidyl]pyridazin-3-yl]-3,5-dichloro-phenol]
> 10000 | 192 | NC[C@@H]1CCN(c2ccc(-c3c(O)cc(Cl)cc3Cl)nn2)C1 [Example 23, 2-[6-[(3S)-3-(aminomethyl)pyrrolidin-1-yl]pyridazin-3-yl]-3,5-dichloro-phenol]
> 10000 | 109 | NC[C@H]1CCN(c2ccc(-c3c(O)cc(Cl)cc3Cl)nn2)C1 [Example 25, 2-[6-[(3R)-3-(aminomethyl)pyrrolidin-1-yl]pyridazin-3-yl]-3,5-dichloro-phenol]
> 10000 | 352 | Cc1cc(C(F)(F)F)cc(O)c1-c1ccc(N2CCOC(C(C)(C)O)C2)nn1 (stereo not shown) [Example 26, 2-[6-[2-(1-hydroxy-1-methyl-ethyl)morpholin-4-yl]pyridazin-3-yl]-3-methyl-5-(trifluoromethyl)phenol]
> 10000 | 109 | Cc1cc(C(F)(F)F)cc(O)c1-c1ccc(N2CCC[C@H](CO)C2)nn1 [Example 28, 2-[6-[(3S)-3-(hydroxymethyl)-1-piperidyl]pyridazin-3-yl]-3-methyl-5-(trifluoromethyl)phenol]
> 10000 | 332 | Cc1cc(C(F)(F)F)cc(O)c1-c1ccc(N2CCN(C)CC2)nn1 [Example 29, 3-methyl-2-[6-(4-methylpiperazin-1-yl)pyridazin-3-yl]-5-(trifluoromethyl)phenol]
> 10000 | 431 | Cc1cc(C(F)(F)F)cc(O)c1-c1ccc(N2CC(CO)C2)nn1 [Example 30, 2-[6-[3-(hydroxymethyl)azetidin-1-yl]pyridazin-3-yl]-3-methyl-5-(trifluoromethyl)phenol]
> 10000 | 520 | Cc1cc(C)c(-c2ccc(N3CCC[C@@H](N)C3)nn2)c(O)c1 [Example 31, 2-[6-[(3R)-3-amino-1-piperidyl]pyridazin-3-yl]-3,5-dimethyl-phenol; formic acid]
> 10000 | 239 | COC[C@H]1CN(c2ccc(-c3c(O)cc(Cl)cc3Cl)nn2)CCO1 [Example 33, 3,5-dichloro-2-[6-[(2R)-2-(methoxymethyl)morpholin-4-yl]pyridazin-3-yl]phenol]
> 10000 | 95 | OC[C@H]1CCCN(c2ccc(-c3c(O)cc(Cl)cc3Cl)nn2)C1 [Example 34, 3,5-dichloro-2-[6-[(3S)-3-(hydroxymethyl)-1-piperidyl]pyridazin-3-yl]phenol]
> 10000 | 501 | COC[C@@H]1CN(c2ccc(-c3c(O)cc(Cl)cc3Cl)nn2)CCO1 [Example 35, 3,5-dichloro-2-[6-[(2S)-2-(methoxymethyl)morpholin-4-yl]pyridazin-3-yl]phenol]
> 10000 | 96 | OC[C@@H]1CCCN(c2ccc(-c3c(O)cc(Cl)cc3Cl)nn2)C1 [Example 36, 3,5-dichloro-2-[6-[(3R)-3-(hydroxymethyl)-1-piperidyl]pyridazin-3-yl]phenol]
> 10000 | 90 | Oc1cc(Cl)cc(Cl)c1-c1ccc(N2CCOCC2)nn1 [Example 38, 3,5-dichloro-2-(6-morpholinopyridazin-3-yl)phenol]
> 10000 | 238 | CN(C)C[C@H]1CN(c2ccc(-c3c(O)cc(Cl)cc3Cl)nn2)CCO1 [Example 39, 3,5-dichloro-2-[6-[(2S)-2-[(dimethylamino)methyl]morpholin-4-yl]pyridazin-3-yl]phenol]
> 10000 | 420 | CN(C)C[C@@H]1CCN(c2ccc(-c3c(O)cc(Cl)cc3Cl)nn2)C1 [Example 40, 3,5-dichloro-2-[6-[(3S)-3-[(dimethylamino)methyl]pyrrolidin-1-yl]pyridazin-3-yl]phenol]
